From patent US11945836B2, “Compositions and methods for treating CNS disorders” (Sage Therapeutics, Inc., priority 2014, dated 2024)

These compounds were tested against rat brain cortical membranes ([35S]-TBPS binding) (assay: Steroid inhibition of [35S]-TBPS binding (radioligand displacement)). Settings: 3 nM [35S]-TBPS, in the presence of 5 μM GABA.
Procedure: Steroid Inhibition of TBPS Binding
TBPS binding assays using rat brain cortical membranes in the presence of 5 μM GABA has been described (Gee et al, J. Pharmacol. Exp. Ther. 1987, 241, 346-353; Hawkinson et al, Mol. Pharmacol. 1994, 46, 977-985; Lewin, A. H et al., Mol. Pharmacol. 1989, 35, 189-194).
Briefly, cortices are rapidly removed following decapitation of carbon dioxide-anesthetized Sprague-Dawley rats (200-250 g). The cortices are homogenized in 10 volumes of ice-cold 0.32 M sucrose using a glass/teflon homogenizer and centrifuged at 1500×g for 10 min at 4° C. The resultant supernatants are centrifuged at 10,000×g for 20 min at 4° C. to obtain the P2 pellets. The P2 pellets are resuspended in 200 mM NaCl/50 mM Na—K phosphate pH 7.4 buffer and centrifuged at 10,000×g for 10 min at 4° C. This washing procedure is repeated twice and the pellets are resuspended in 10 volumes of buffer. Aliquots (100 uL) of the membrane suspensions are incubated with 3 nM [^35S]-TBPS and 5 μL aliquots of test drug dissolved in dimethyl sulfoxide (DMSO) (final 0.5%) in the presence of 5 μM GABA. The incubation is brought to a final volume of 1.0 mL with buffer. […] Following a 90 min incubation at room temp, the assays are terminated by filtration through glass fiber filters (Schleicher and Schuell No. 32) using a cell harvester (Brandel) and rinsed three times with ice-cold buffer. Filter bound radioactivity is measured by liquid scintillation spectrometry. Non-linear curve fitting of the overall data for each drug averaged for each concentration is done using Prism (GraphPad). […] The concentration of test compound producing 50% inhibition (IC50) of specific binding and the maximal extent of inhibition (Imax) are determined for the individual experiments with the same model used for the overall data and then the means±SEMs of the individual experiments are calculated.
Various compounds are or can be screened to determine their potential as modulators of [^35S]-TBPS binding in vitro. These assays are or can be performed in accordance with the above discussed procedures.

Row | Structure (SMILES) | IC50 [nM]
1 | C[C@@]1(O)CC[C@H]2[C@H](CC[C@@H]3[C@@H]2CC[C@]2(C)[C@@H](C(=O)c4nc5ccccc5s4)CC[C@@H]32)C1 [Compound 8] | > 100
2 | C[C@@]1(O)CC[C@@]2(C)[C@H](CC[C@@H]3[C@@H]2CC[C@]2(C)[C@@H](C(=O)c4cc(F)cc(F)c4)CC[C@@H]32)C1 [Compound 23] | 50 to 100
3 | CCc1ccc(C(=O)[C@H]2CC[C@H]3[C@@H]4CC[C@@H]5C[C@](C)(O)CC[C@]5(C)[C@H]4CC[C@]23C)cc1 [Compound 49] | < 20
4 | Cc1cc(C(=O)[C@H]2CC[C@H]3[C@@H]4CC[C@@H]5C[C@](C)(O)CC[C@@H]5[C@H]4CC[C@]23C)ccc1F [Compound 26] | 20 to 50
5 | C[C@@]1(O)CC[C@H]2[C@H](CC[C@@H]3[C@@H]2CC[C@]2(C)[C@@H](C(=O)c4ccccc4)CC[C@@H]32)C1 [Compound 1] | < 20
6 | Cc1ccc(C(=O)[C@H]2CC[C@H]3[C@@H]4CC[C@@H]5C[C@](C)(O)CC[C@@H]5[C@H]4CC[C@]23C)cc1F [Compound 41] | 20 to 50
7 | COC[C@]12CC[C@@](C)(O)C[C@@H]1CC[C@H]1[C@@H]3CC[C@H](C(=O)c4cc(C)cc(C)c4)[C@@]3(C)CC[C@@H]12 [Compound 93] | 50 to 100
8 | Cn1ccnc1C(=O)[C@H]1CC[C@H]2[C@@H]3CC[C@@H]4C[C@](C)(O)CC[C@@H]4[C@H]3CC[C@]12C [Compound 3] | > 100
9 | C[C@@]1(O)CC[C@H]2[C@H](CC[C@@H]3[C@@H]2CC[C@]2(C)[C@@H](C(=O)c4ccc(OC(F)(F)F)cc4)CC[C@@H]32)C1 [Compound 34] | < 20
10 | C[C@@]1(O)CC[C@H]2[C@H](CC[C@@H]3[C@@H]2CC[C@]2(C)[C@@H](C(=O)c4cccs4)CC[C@@H]32)C1 [Compound 4] | 20 to 50
11 | CSc1ccc(C(=O)[C@H]2CC[C@H]3[C@@H]4CC[C@@H]5C[C@](C)(O)CC[C@@H]5[C@H]4CC[C@]23C)cc1 [Compound 25] | 20 to 50
12 | C[C@@]1(O)CC[C@H]2[C@H](CC[C@@H]3[C@@H]2CC[C@]2(C)[C@@H](C(=O)c4cccnc4)CC[C@@H]32)C1 [Compound 70] | 50 to 100
13 | COc1ccc2cc(C(=O)[C@H]3CC[C@H]4[C@@H]5CC[C@@H]6C[C@](C)(O)CC[C@@H]6[C@H]5CC[C@]34C)ccc2c1 [Compound 72] | 20 to 50
14 | CN(C)c1ccc(C(=O)[C@H]2CC[C@H]3[C@@H]4CC[C@H]5C[C@](C)(O)CC[C@@H]5[C@H]4CC[C@]23C)cc1 [Compound 111] | > 100
15 | Cc1ccc(C(=O)[C@H]2CC[C@H]3[C@@H]4CC[C@H]5C[C@](C)(O)CC[C@]5(C)[C@H]4CC[C@]23C)cc1F [Compound 45] | > 100
16 | Cc1ccc(C(=O)[C@H]2CC[C@H]3[C@@H]4CC[C@H]5C[C@](C)(O)CC[C@]5(C)[C@H]4CC[C@]23C)cc1C [Compound 39] | 50 to 100
17 | CN(C)c1ccc(C(=O)[C@H]2CC[C@H]3[C@@H]4CC[C@@H]5C[C@](C)(O)CC[C@@H]5[C@H]4CC[C@]23C)cc1 [Compound 32] | 20 to 50
18 | COc1cc(OC)cc(C(=O)[C@H]2CC[C@H]3[C@@H]4CC[C@@H]5C[C@](C)(O)CC[C@@H]5[C@H]4CC[C@]23C)c1 [Compound 130] | 20 to 50
19 | Cc1ccc(C(=O)[C@H]2CC[C@H]3[C@@H]4CC[C@@H]5C[C@](C)(O)CC[C@]5(C)[C@H]4CC[C@]23C)cc1 [Compound 89] | 50 to 100
20 | C[C@@]1(O)CC[C@@]2(C)[C@H](CC[C@@H]3[C@@H]2CC[C@]2(C)[C@@H](C(=O)c4ccc(OC(F)(F)F)cc4)CC[C@@H]32)C1 [Compound 47] | 20 to 50
21 | C[C@@]1(O)CC[C@H]2[C@H](CC[C@@H]3[C@@H]2CC[C@]2(C)[C@@H](C(=O)c4ccsc4)CC[C@@H]32)C1 [Compound 10] | < 20
22 | Cc1cc(C)cc(C(=O)[C@H]2CC[C@H]3[C@@H]4CC[C@H]5C[C@](C)(O)CC[C@]5(C)[C@H]4CC[C@]23C)c1 [Compound 135] | > 100
23 | COC[C@]12CC[C@@](C)(O)C[C@@H]1CC[C@H]1[C@@H]3CC[C@H](C(=O)c4ccccc4OC)[C@@]3(C)CC[C@@H]12 [Compound 105] | > 100
24 | C[C@@]1(O)CC[C@H]2[C@H](CC[C@@H]3[C@@H]2CC[C@]2(C)[C@@H](C(=O)c4cnn[nH]4)CC[C@@H]32)C1 [Compound 98] | > 100

Each compound was assayed against T1, GABAA receptors α1β2γ2 (Homo sapiens, UniProt P14867+P47870) (assay: Patch clamp electrophysiology (QPatch) of recombinant GABAA receptors in Ltk cells). Settings: 10 μM test article, 2 μM GABA (EC20), Ltk cells stably transfected with α1β2γ2, relative percentage potentiation; read-out: GABA (α1β2γ2) Qpatch in Ltk, % efficacy at 10 μM.
T1 construct: expressed in transfected cells; host or cells: LTK (Ltk) cells, stably transfected
T1 sequence (P14867 28-456): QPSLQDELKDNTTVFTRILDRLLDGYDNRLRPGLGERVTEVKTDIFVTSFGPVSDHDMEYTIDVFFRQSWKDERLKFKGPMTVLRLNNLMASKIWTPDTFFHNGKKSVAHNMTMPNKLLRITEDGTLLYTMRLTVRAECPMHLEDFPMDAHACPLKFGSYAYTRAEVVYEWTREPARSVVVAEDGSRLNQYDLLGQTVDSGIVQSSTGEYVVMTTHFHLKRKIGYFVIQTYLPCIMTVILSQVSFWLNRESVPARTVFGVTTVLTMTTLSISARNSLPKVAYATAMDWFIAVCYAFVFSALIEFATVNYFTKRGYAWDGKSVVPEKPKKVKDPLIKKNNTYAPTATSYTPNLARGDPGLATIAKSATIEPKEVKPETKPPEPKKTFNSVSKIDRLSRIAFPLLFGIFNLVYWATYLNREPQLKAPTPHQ
T1 sequence (P47870 25-512 limits assumed): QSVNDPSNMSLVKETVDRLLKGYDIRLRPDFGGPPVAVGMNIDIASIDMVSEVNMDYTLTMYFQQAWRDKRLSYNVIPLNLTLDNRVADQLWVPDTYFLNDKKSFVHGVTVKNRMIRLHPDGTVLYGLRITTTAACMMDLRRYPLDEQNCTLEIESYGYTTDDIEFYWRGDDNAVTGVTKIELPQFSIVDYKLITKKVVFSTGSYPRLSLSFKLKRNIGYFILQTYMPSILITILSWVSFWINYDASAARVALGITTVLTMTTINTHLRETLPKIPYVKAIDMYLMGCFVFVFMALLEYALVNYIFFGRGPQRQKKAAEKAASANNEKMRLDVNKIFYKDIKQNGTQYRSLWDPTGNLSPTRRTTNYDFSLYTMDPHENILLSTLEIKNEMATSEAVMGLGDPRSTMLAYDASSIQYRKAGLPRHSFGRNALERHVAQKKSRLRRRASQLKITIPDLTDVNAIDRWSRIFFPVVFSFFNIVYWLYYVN
T1 sequence (P18507 40-475 partner): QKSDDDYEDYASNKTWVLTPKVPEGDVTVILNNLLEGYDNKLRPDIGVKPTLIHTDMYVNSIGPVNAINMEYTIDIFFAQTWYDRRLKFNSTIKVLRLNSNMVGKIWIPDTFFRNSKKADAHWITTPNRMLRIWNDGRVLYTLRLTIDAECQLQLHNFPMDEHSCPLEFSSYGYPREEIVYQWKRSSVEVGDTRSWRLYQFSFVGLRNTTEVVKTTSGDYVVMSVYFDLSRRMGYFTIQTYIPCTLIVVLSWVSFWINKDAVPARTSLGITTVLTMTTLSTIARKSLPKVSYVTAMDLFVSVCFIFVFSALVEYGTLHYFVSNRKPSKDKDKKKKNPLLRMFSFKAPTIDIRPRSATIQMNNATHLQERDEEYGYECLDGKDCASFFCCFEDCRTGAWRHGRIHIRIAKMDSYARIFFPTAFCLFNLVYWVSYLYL
Format: cell-based
Procedure: Patch Clamp Electrophysiology of Recombinant α1β2γ2 and α4β3δ GABAA Receptors
Cellular electrophysiology is used to measure the pharmacological properties of our GABAA receptor modulators in heterologous cell systems. Each compound is tested for its ability to affect GABA mediated currents at a submaximal agonist dose (GABA EC20=2 μM). LTK cells are stably transfected with the α1β2γ2 subunits of the GABA receptor and CHO cells are transiently transfected with the α4β3δ subunits via the Lipofecatamine method. Cells were passaged at a confluence of about 50-80% and then seeded onto 35 mm sterile culture dishes containing 2 ml culture complete medium without antibiotics or antimycotics. Confluent clusters of cells are electrically coupled (Pritchett et al., Science, 1988, 242, 1306-1308). Because responses in distant cells are not adequately voltage clamped and because of uncertainties about the extent of coupling (Verdoorn et al., Neuron 1990, 4, 919-928), cells were cultivated at a density that enables the recording of single cells (without visible connections to other cells).
Whole cell currents were measured with HEKA EPC-10 amplifiers using PatchMaster software or by using the high throughput QPatch platform (Sophion). Bath solution for all experiments contained (in mM): NaCl 137 mM, KCl 4 mM, CaCl2 1.8 mM, MgCl2 1 mM, HEPES 10 mM, D-Glucose 10 mM, pH (NaOH) 7.4. […]

Row | Structure (SMILES) | Emax at 10 µM [%]
25 | C[C@@]1(O)CC[C@H]2[C@H](CC[C@@H]3[C@@H]2CC[C@]2(C)[C@@H](C(=O)c4nc5ccccc5s4)CC[C@@H]32)C1 [Compound 8] | 100 to 500
26 | C[C@@]1(O)CC[C@H]2[C@H](CC[C@@H]3[C@@H]2CC[C@]2(C)[C@@H](C(=O)c4ccccc4)CC[C@@H]32)C1 [Compound 1] | > 500
